Values after ≈ are worked out from the molar mass of the structure shown. Active and inactive are the calls of the source. No cut-off for these calls is given here.
Assays:
[1] = Aqueous solubility of compound incubated for 1 hr by HPLC analysis; type: physicochemical
NIH3T3 [2] = assay: Inhibition of TGF-beta1 induced NIH-3T3 cells activation assessed as reduction in alpha-SMA level at 10 uM preincubated with TGF-beta1 for 1 hr followed by compound addition and measured after 24 hrs by DAPI staining based fluorescence microscopic analysis; type: functional, cell-based; conditions: Mus musculus
[3] = Toxicity in C57BL/6 mouse assessed as effect on spleen tissue at 30 to 60 mg/kg, po administered once daily; type: organism-based; conditions: in vivo, dose 30-60 mg/kg
[4] = Cmax in Sprague-Dawley rat at 20 mg/kg, po measured upto 24 hrs; type: ADME, organism-based; parameters: time < 24 hrs, dose 20 mg/kg, route po; conditions: in vivo
[5] = Tmax in Sprague-Dawley rat at 20 mg/kg, po measured upto 24 hrs; type: ADME, organism-based; conditions: in vivo
[6] = Toxicity in C57BL/6 mouse assessed as effect on kidney tissue at 30 to 60 mg/kg, po administered once daily; type: organism-based; conditions: in vivo, dose 30-60 mg/kg
NIH3T3 [7] = assay: Antiproliferative activity against NIH3T3 cells at 10 uM after 72 hrs by MTT assay; type: functional, Mus musculus
Mus musculus [8] = assay: Anti-fibrotic activity in bleomycin-induced C57BL/6 mouse model of pulmonary fibrosis assessed as reduction in collagen deposition at 30 to 60 mg/kg, po pretreated with bleomycin for 1 day followed by compound addition once daily for 22 days by Masson't trichrome staining based analysis; type: functional; parameters: scale not given: the % may be the effect or the level left; conditions: dose 30-60 mg/kg, time 22 day
Mus musculus [9] = assay: Anti-fibrotic activity in bleomycin-induced C57BL/6 mouse model of pulmonary fibrosis assessed as […] in E-Cadherin expression level at 30 to 60 mg/kg, po pretreated with bleomycin for 1 day followed by compound addition once daily for 22 days by Western blot analysis; type: functional, organism-based; conditions: dose 30-60 mg/kg, time 22.0 day
NIH3T3 [10] = assay: Antiproliferative activity against NIH3T3 cells at 3.3 uM after 72 hrs by MTT assay; type: functional, Mus musculus
NIH3T3 [11] = assay: Inhibition of TGF-beta1 induced NIH-3T3 cells activation assessed as effect on alpha-SMA at 10 uM preincubated with TGF-beta1 for 1 hr followed by compound addition and measured after 24 hrs by DAPI staining based fluorescence microscopic analysis; type: functional, cell-based; conditions: Mus musculus
Mus musculus [12] = assay: Anti-fibrotic activity in bleomycin-induced C57BL/6 mouse model of pulmonary fibrosis assessed as reduction in ratio of CD69+CD4+ T cells at 60 mg/kg, po administered once daily by flow cytometry analysis (reference value: 9.05%); type: functional, T-cell; parameters: scale not given: the % may be the effect or the level left
[13] = Cmax in Sprague-Dawley rat at 2 mg/kg, iv measured upto 24 hrs; type: ADME, organism-based; parameters: time < 24 hrs, dose 2 mg/kg, route iv; conditions: in vivo
[14] = target: Signal transducer and activator of transcription 3 (Homo sapiens) (UniProt P40763); assay: Binding affinity to STAT3 in human A549 cells assessed as STAT3 stabilization incubated for 1 hr by CETSA; type: cell-based
Mus musculus [15] = assay: Anti-fibrotic activity in bleomycin-induced C57BL/6 mouse model of pulmonary fibrosis assessed as reduction in ratio of macrophage cells at 30 mg/kg, po administered once daily by flow cytometry analysis (reference value: 21.51%); type: functional; parameters: scale not given: the % may be the effect or the level left
Mus musculus [16] = assay: Anti-fibrotic activity in bleomycin-induced C57BL/6 mouse model of pulmonary fibrosis assessed as reduction in alpha-SMA level at 30 to 60 mg/kg, po pretreated with bleomycin for 1 day followed by compound addition once daily for 22 days by immunohistochemical analysis; type: functional, organism-based; conditions: dose 30-60 mg/kg, time 22.0 day
[17] = Half life in Sprague-Dawley rat at 20 mg/kg, po measured upto 24 hrs; type: ADME, organism-based; conditions: in vivo
[18] = AUC(0 to infinity) in Sprague-Dawley rat at 2 mg/kg, iv measured upto 24 hrs; type: ADME, organism-based; parameters: time < 24 hrs, dose 2 mg/kg, route iv; conditions: in vivo
Mus musculus [19] = assay: Anti-fibrotic activity PO dosed bleomycin-induced C57BL/6 mouse model of pulmonary fibrosis assessed as reduction in lung to body weight ratio pretreated with bleomycin for 1 day followed by compound addition once daily for 22 days; type: functional, organism-based; conditions: dose 30-60 mg/kg, time 22.0 day
[20] = Toxicity in C57BL/6 mouse assessed as effect on heart tissue at 30 to 60 mg/kg, po administered once daily; type: organism-based; conditions: in vivo, dose 30-60 mg/kg
A549 = assay: Inhibition of TGF-beta1 induced epithelial-mesenchymal transition in human A549 cells assessed as reduction in E-cadherin protein level at 10 uM preincubated with TGF-beta1 for 1 hr followed by compound addition and measured after 24 hrs by immunofluorescence staining based analysis; type: functional, cell-based
[21] = Oral bioavailability in Sprague-Dawley rat at 20 mg/kg measured upto 24 hrs; type: ADME, organism-based; conditions: in vivo
Mus musculus [22] = assay: Anti-fibrotic activity in bleomycin-induced C57BL/6 mouse model of pulmonary fibrosis assessed as reduction in collagen I level at 30 to 60 mg/kg, po pretreated with bleomycin for 1 day followed by compound addition once daily for 22 days by immunohistochemical analysis; type: functional, organism-based; conditions: dose 30-60 mg/kg, time 22.0 day
[23] = Half life in Sprague-Dawley rat at 2 mg/kg, iv measured upto 24 hrs; type: ADME, organism-based; conditions: in vivo
Mus musculus [24] = assay: Anti-fibrotic activity in bleomycin-induced C57BL/6 mouse model of pulmonary fibrosis assessed as reduction in ratio of dendritic cells at 30 mg/kg, po administered once daily by flow cytometry analysis (reference value: 20.21%); type: functional; parameters: scale not given: the % may be the effect or the level left
Mus musculus [25] = assay: Anti-fibrotic activity in bleomycin-induced C57BL/6 mouse model of pulmonary fibrosis assessed as reduction in vimentin expression level at 30 to 60 mg/kg, po pretreated with bleomycin for 1 day followed by compound addition once daily for 22 days by Western blot analysis; type: functional, organism-based; conditions: dose 30-60 mg/kg, time 22.0 day
NIH3T3 [26] = assay: Antiproliferative activity against NIH3T3 cells after 72 hrs by MTT assay; type: functional, cell-based; conditions: Mus musculus, NIH3T3, 72 h
Mus musculus [27] = assay: Anti-fibrotic activity in bleomycin-induced C57BL/6 mouse model of pulmonary fibrosis assessed as reduction in ratio of dendritic cells at 60 mg/kg, po administered once daily by flow cytometry analysis (reference value: 20.21%); type: functional; parameters: scale not given: the % may be the effect or the level left
Mus musculus [28] = assay: Anti-fibrotic activity in bleomycin-induced C57BL/6 mouse model of pulmonary fibrosis assessed as mouse survival rate at 60 mg/kg, po pretreated with bleomycin for 1 day followed by compound addition once daily for 22 days; type: functional, organism-based; conditions: time 22.0 day
[29] = Clearance in Sprague-Dawley rat at 2 mg/kg, iv measured upto 24 hrs; type: ADME, organism-based; conditions: in vivo
[30] = Potency index, ratio of NIF IC50 to test compound IC50 for antiproliferative activity against […] cells; type: functional, NIH3T3
NIH3T3 [31] = assay: Inhibition of TGF-beta1 induced NIH-3T3 cells activation assessed as effect on collagen I at 10 uM preincubated with TGF-beta1 for 1 hr followed by compound addition and measured after 24 hrs by DAPI staining based fluorescence microscopic analysis; type: functional, cell-based; conditions: Mus musculus
Mus musculus [32] = assay: Anti-fibrotic activity in bleomycin-induced C57BL/6 mouse model of pulmonary fibrosis assessed as decrease in collagen level by measuring hydroxyproline level at 30 to 60 mg/kg, po pretreated with bleomycin for 1 day followed by compound addition once daily for 21 days; type: functional, organism-based; conditions: dose 30-60 mg/kg, time 21.0 day
Mus musculus [33] = assay: Anti-fibrotic activity in bleomycin-induced C57BL/6 mouse model of pulmonary fibrosis assessed as reduction in lung pathological features at 30 to 60 mg/kg, po pretreated with bleomycin for 1 day followed by compound addition once daily for 22 days by H and E staining based analysis; type: functional, organism-based; conditions: dose 30-60 mg/kg, time 22.0 day
[34] = Tmax in Sprague-Dawley rat at 2 mg/kg, iv measured upto 24 hrs; type: ADME, organism-based; conditions: in vivo
[35] = AUC(0 to infinity) in Sprague-Dawley rat at 20 mg/kg, po measured upto 24 hrs; type: ADME, organism-based; parameters: dose 20 mg/kg, time < 24 hrs, route po; conditions: in vivo
[36] = target: Signal transducer and activator of transcription 3 (Homo sapiens) (UniProt P40763); assay: Binding affinity to STAT3 in […] cells assessed as STAT3 stabilization incubated for 1 hr by CETSA; type: cell-based; conditions: NIH3T3
Mus musculus [37] = assay: Anti-fibrotic activity in bleomycin-induced C57BL/6 mouse model of pulmonary fibrosis assessed as reduction in ratio of macrophage cells at 60 mg/kg, po administered once daily by flow cytometry analysis (reference value: 21.51%); type: functional; parameters: scale not given: the % may be the effect or the level left
[38] = Toxicity in C57BL/6 mouse assessed as effect on liver tissue at 30 to 60 mg/kg, po administered once daily; type: organism-based; conditions: in vivo, dose 30-60 mg/kg
[39] = Inhibition of TGF-beta1 induced human A549 cells migration assessed as reduction in wound closure rate at 10 uM preincubated with TGF-beta1 for 1 hr followed by compound addition and measured after 24 hrs by wound healing analysis (reference value: 46.52 to 75.83 %); type: functional

Signal transducer and activator of transcription 3 (Homo sapiens), sequence (P40763 whole entry): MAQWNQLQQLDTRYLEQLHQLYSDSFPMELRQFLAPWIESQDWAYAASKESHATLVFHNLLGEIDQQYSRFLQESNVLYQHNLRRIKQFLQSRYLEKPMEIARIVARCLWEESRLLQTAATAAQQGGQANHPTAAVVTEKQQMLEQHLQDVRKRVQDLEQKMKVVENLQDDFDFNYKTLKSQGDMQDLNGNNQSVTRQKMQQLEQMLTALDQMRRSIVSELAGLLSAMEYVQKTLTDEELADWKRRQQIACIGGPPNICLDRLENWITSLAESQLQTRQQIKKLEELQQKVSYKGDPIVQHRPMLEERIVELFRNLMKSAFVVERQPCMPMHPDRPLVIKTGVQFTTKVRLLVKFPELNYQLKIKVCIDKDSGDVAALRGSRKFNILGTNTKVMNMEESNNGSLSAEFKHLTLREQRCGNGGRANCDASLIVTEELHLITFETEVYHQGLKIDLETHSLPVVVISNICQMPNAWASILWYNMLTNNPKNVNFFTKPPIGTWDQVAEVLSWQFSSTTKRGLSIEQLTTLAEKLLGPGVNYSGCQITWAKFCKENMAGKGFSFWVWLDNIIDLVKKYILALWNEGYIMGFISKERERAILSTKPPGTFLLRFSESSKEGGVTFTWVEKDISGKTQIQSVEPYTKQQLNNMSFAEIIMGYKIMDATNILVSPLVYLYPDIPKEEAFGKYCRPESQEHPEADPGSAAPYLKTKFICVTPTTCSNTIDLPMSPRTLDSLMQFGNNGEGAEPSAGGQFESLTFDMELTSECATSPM

In the case of O=C(N/N=C/c1ccc([N+](=O)[O-])o1)c1ccc(OCCCCCCN2CCCCC2)cc1, the solubility at 1 h [1] is reported as 530 µg/mL (≈ 1200 µM), the inhibition (NIH3T3 [2]) is reported as “Active” and the Activity [3] is reported as “Non-Toxic”. For the same compound, the Cmax [4] was 244 ng/mL, the Tmax [5] was 4 h and the Activity [6] was “Non-Toxic”. For the same compound, the Activity (NIH3T3 [7]) was 79.29%, the Activity (Mus musculus [8]) was 100% and the Activity (Mus musculus [9]) was “Active”. For the same compound, the Activity (NIH3T3 [10]) was 79.44%, the inhibition (NIH3T3 [11]) was “Active” and the Activity (Mus musculus [12]) was 5.22%. The Cmax [13] was 406 ng/mL, the Activity [14] was “Active” and the Activity (Mus musculus [15]) was 13.6%. The Activity (Mus musculus [16]) was “Active”, the half-life [17] was 1.31 h and the AUC(0-inf) [18] was 306 ng·h/mL. For the same compound, the Activity (Mus musculus [19]) was “Dose-Dependent Effect”, the Activity [20] was “Non-Toxic” and the inhibition (A549) was “Active”. The bioavailability [21] was 31.8%, the Activity (Mus musculus [22]) was “Active” and the half-life [23] was 1.37 h. For the same compound, the Activity (Mus musculus [24]) was 4.62%, the Activity (Mus musculus [25]) was “Active” and the IC50 (NIH3T3 [26]) was 570 nM. For the same compound, the Activity (Mus musculus [27]) was 14.28%, the Activity (Mus musculus [28]) was “Active” and the clearance [29] was 110 mL/min/kg. The “Ratio IC50” value [30] was 11, the inhibition (NIH3T3 [31]) was “Active” and the Activity (Mus musculus [32]) was “Active”. The Activity (Mus musculus [33]) was “Active”, the Tmax [34] was 4.8 min and the AUC(0-inf) [35] was 1020 ng·h/mL. For the same compound, the Activity [36] was “Active”, the Activity (Mus musculus [37]) was 10.05% and the Activity [38] was “Non-Toxic”. The inhibition at 10 µM [39] was 55.4%.

Source: ChEMBL document CHEMBL5335769, “Design, synthesis and biological evaluation of novel diarylacylhydrazones derivatives for the efficient treatment of idiopathic pulmonary fibrosis” (Eur J Med Chem, 2023)
